According to the NIST ThermoML archive (doi:10.1016/j.jct.2013.07.006):

What was measured:
[1] = for molar entropy: 101.33 kPa, Vacuum adiabatic calorimetry
[2] = molar heat capacity at constant pressure; conditions: 101.33 kPa, Vacuum adiabatic calorimetry

[Cl][Ru-2]([Cl])([Cl])([Cl])([Cl])[Cl].[NH4+].[NH4+] [diammonium hexachlororuthenate]
Conditions | molar entropy, [1] [J/K/mol] | molar heat capacity at constant pressure, [2] [J/K/mol]
5 K, Crystal 2 | 0.1106 | 0.3475
5.89 K, Crystal 2 | – | 0.5877
7.09 K, Crystal 2 | – | 1.079
8.03 K, Crystal 2 | – | 1.495
9.46 K, Crystal 2 | – | 2.313
10 K, Crystal 2 | 0.9395 | 2.661
10.8 K, Crystal 2 | – | 3.236
11.99 K, Crystal 2 | – | 4.23
13.2 K, Crystal 2 | – | 5.407
14.5 K, Crystal 2 | – | 6.916
15 K, Crystal 2 | 2.827 | 7.358
15.9 K, Crystal 2 | – | 8.589
17.35 K, Crystal 2 | – | 10.37
18.81 K, Crystal 2 | – | 12.31
20 K, Crystal 2 | 5.82 | 13.97
20.31 K, Crystal 2 | – | 14.26
21.81 K, Crystal 2 | – | 16.45
23.4 K, Crystal 2 | – | 18.76
25 K, Crystal 2 | 9.703 | 21.24
25.1 K, Crystal 2 | – | 21.38
26.81 K, Crystal 2 | – | 24.18
28.54 K, Crystal 2 | – | 26.91
30 K, Crystal 2 | 14.44 | 29.49
30.27 K, Crystal 2 | – | 30.01
32.02 K, Crystal 2 | – | 33.06
33.91 K, Crystal 2 | – | 36.87
35 K, Crystal 2 | 19.68 | 38.87
35.95 K, Crystal 2 | – | 40.66
37.99 K, Crystal 2 | – | 44.72
40 K, Crystal 2 | 25.51 | 48.89
40.05 K, Crystal 2 | – | 48.96
42.12 K, Crystal 2 | – | 53.55
44.2 K, Crystal 2 | – | 58.17
45 K, Crystal 2 | 31.89 | 59.91
46.3 K, Crystal 2 | – | 62.77
48.41 K, Crystal 2 | – | 67.6
50 K, Crystal 2 | 38.8 | 71.36
50.8 K, Crystal 2 | – | 73.15
53.47 K, Crystal 2 | – | 79.64
55 K, Crystal 2 | 46.15 | 83.48
56.15 K, Crystal 2 | – | 86.22
58.85 K, Crystal 2 | – | 92.96
60 K, Crystal 2 | 53.94 | 95.95
61.55 K, Crystal 2 | – | 100.02
64.27 K, Crystal 2 | – | 107.34
65 K, Crystal 2 | 62.15 | 109.25
67.13 K, Crystal 2 | – | 114.99
70 K, Crystal 2 | 70.73 | 122.72
70.82 K, Crystal 2 | – | 125.13
75 K, Crystal 2 | 79.67 | 136.44
75.14 K, Crystal 2 | – | 136.94
79.45 K, Crystal 2 | – | 149.83
80 K, Crystal 2 | 88.97 | 151.49
83.79 K, Crystal 2 | – | 162.3
85 K, Crystal 2 | 98.53 | 165.79
88.18 K, Crystal 2 | – | 174.11
90 K, Crystal 2 | 108.42 | 179.09
92.84 K, Crystal 1 | – | 184.67
92.84 K, Crystal 2 | – | 184.67
95 K, Crystal 1 | 118.32 | 184.75
97.88 K, Crystal 1 | – | 182
100 K, Crystal 1 | 127.71 | 180.76
103.06 K, Crystal 1 | – | 178.1
105 K, Crystal 1 | 136.44 | 179.26
108.18 K, Crystal 1 | – | 182.59
110 K, Crystal 1 | 144.92 | 184.83
113.23 K, Crystal 1 | – | 188.41
115 K, Crystal 1 | 153.24 | 190.49
118.27 K, Crystal 1 | – | 194.14
120 K, Crystal 1 | 161.47 | 196.14
123.32 K, Crystal 1 | – | 199.88
125 K, Crystal 1 | 169.62 | 201.54
128.39 K, Crystal 1 | – | 205.12
130 K, Crystal 1 | 177.6 | 206.62
133.46 K, Crystal 1 | – | 209.77
135 K, Crystal 1 | 185.5 | 211.35
138.55 K, Crystal 1 | – | 214.6
140 K, Crystal 1 | 193.31 | 215.93
143.8 K, Crystal 1 | – | 219.17
145 K, Crystal 1 | 200.96 | 220.17
149.2 K, Crystal 1 | – | 223.33
150 K, Crystal 1 | 208.44 | 224.24
154.62 K, Crystal 1 | – | 227.65
160 K, Crystal 1 | 223.16 | 231.48
160.04 K, Crystal 1 | – | 231.39
165.48 K, Crystal 1 | – | 235.13
170 K, Crystal 1 | 237.38 | 238.13
170.9 K, Crystal 1 | – | 238.71
176.33 K, Crystal 1 | – | 242.45
180 K, Crystal 1 | 251.18 | 244.78
181.77 K, Crystal 1 | – | 245.78
187.21 K, Crystal 1 | – | 249.27
190 K, Crystal 1 | 264.65 | 251.43
192.66 K, Crystal 1 | – | 253.09
198.19 K, Crystal 1 | – | 256.75
200 K, Crystal 1 | 277.7 | 257.83
203.88 K, Crystal 1 | – | 260.16
209.62 K, Crystal 1 | – | 263.57
210 K, Crystal 1 | 290.43 | 263.74
215.39 K, Crystal 1 | – | 266.9
220 K, Crystal 1 | 302.81 | 269.06
221.19 K, Crystal 1 | – | 269.39
226.95 K, Crystal 1 | – | 272.55
230 K, Crystal 1 | 314.87 | 274.21
232.71 K, Crystal 1 | – | 275.46
238.48 K, Crystal 1 | – | 277.79
240 K, Crystal 1 | 326.68 | 278.37
244.25 K, Crystal 1 | – | 279.78
250 K, Crystal 1 | 338.07 | 281.53
250.07 K, Crystal 1 | – | 281.53
256.04 K, Crystal 1 | – | 283.36
260 K, Crystal 1 | 349.21 | 284.44
262.1 K, Crystal 1 | – | 285.02
268.12 K, Crystal 1 | – | 286.68
270 K, Crystal 1 | 359.93 | 287.18
274.34 K, Crystal 1 | – | 288.18
280 K, Crystal 1 | 370.49 | 290.18
280.52 K, Crystal 1 | – | 290.51
286.4 K, Crystal 1 | – | 292.01
290 K, Crystal 1 | 380.72 | 293.09
292.34 K, Crystal 1 | – | 293.92
298.15 K, Crystal 1 | 388.87 | 295.66
298.3 K, Crystal 1 | – | 295.25
300 K, Crystal 1 | 390.7 | 296.16
304.21 K, Crystal 1 | – | 297.33
310 K, Crystal 1 | 400.43 | 298.91
310.08 K, Crystal 1 | – | 298.91
315.97 K, Crystal 1 | – | 300.4
320 K, Crystal 1 | 409.99 | 301.15
321.87 K, Crystal 1 | – | 301.57
325 K, Crystal 1 | 414.64 | 302.23

Conditions | Triple point temperature [K]
[1], Crystal 2, Adiabatic calorimetry | 92.84
